Test results reported in ChEMBL document CHEMBL3425496, “Exploring experimental and computational markers of cyclic peptides: Charting islands of permeability” (Eur J Med Chem, 2015).

Key:
[1] = Apparent permeability of the compound at 50 uM after 5 hrs by PAMPA method; format: physicochemical
[2] = Apparent permeability from apical to basolateral side in human Caco2 cells by LC-MS analysis; format: ADME, cell-based; conditions: Caco-2

SMILES	Papp at 5 h, 50 µM [1]	Papp A→B [2]
CC(C)C[C@@H]1NC(=O)[C@@H](Cc2ccccc2)NC(=O)CNC(=O)[C@@H](C)NC(=O)[C@H](Cc2ccc(O)cc2)NC(=O)[C@@H]2CCCN2C1=O	0.01 ×10⁻⁶ cm/s	0.09 ×10⁻⁶ cm/s
CC(C)C[C@@H]1C(=O)N(C)[C@@H](CC(C)C)C(=O)N(C)[C@@H](CC(C)C)C(=O)N2CCC[C@@H]2C(=O)N[C@@H](Cc2ccc(O)cc2)C(=O)N(C)[C@@H](CC(C)C)C(=O)N1C	1.52 ×10⁻⁶ cm/s	15.8 ×10⁻⁶ cm/s
CC(C)C[C@@H]1NC(=O)[C@@H](CC(C)C)NC(=O)[C@H](Cc2ccccc2)NC(=O)CNC(=O)[C@@H](C)NC(=O)[C@H](Cc2ccc(O)cc2)NC1=O	0.02 ×10⁻⁶ cm/s	0.72 ×10⁻⁶ cm/s
CC(C)C[C@@H]1NC(=O)[C@H](Cc2ccccc2)NC(=O)[C@@H](CC(C)C)N(C)C(=O)[C@H](CC(C)C)N(C)C(=O)[C@H](Cc2ccc(O)cc2)NC(=O)[C@@H]2CCCN2C1=O	0.41 ×10⁻⁶ cm/s	12 ×10⁻⁶ cm/s
CC[C@H](C)[C@@H]1NC(=O)[C@H](Cc2c[nH]c3ccccc23)NC(=O)[C@H]2CCCN2C(=O)[C@H]([C@@H](C)CC)NC(=O)[C@H]([C@@H](C)CC)NC(=O)[C@@H](CC(C)C)NC1=O	0.41 ×10⁻⁶ cm/s	3.06 ×10⁻⁶ cm/s
CC(C)C[C@@H]1NC(=O)[C@H](Cc2c[nH]c3ccccc23)NC(=O)[C@H]2CCCN2C(=O)[C@H](CC(C)C)NC(=O)[C@H](CC(C)C)NC(=O)[C@@H](CC(C)C)NC1=O	1.67 ×10⁻⁶ cm/s	5.95 ×10⁻⁶ cm/s
CC(C)C[C@@H]1NC(=O)[C@H](Cc2c[nH]c3ccccc23)NC(=O)[C@H]2CCCN2C(=O)[C@@H](CC(C)C)NC(=O)[C@@H](CC(C)C)NC(=O)[C@@H](CC(C)C)NC1=O	3.33 ×10⁻⁶ cm/s	9.46 ×10⁻⁶ cm/s
CC(C)C[C@H]1NC(=O)[C@H](CC(C)C)N(C)C(=O)[C@H](CC(C)C)N(C)C(=O)[C@H](Cc2ccc(O)cc2)NC(=O)[C@@H]2CCCN2C(=O)[C@H]2CCCN2C1=O	1.11 ×10⁻⁶ cm/s	5.45 ×10⁻⁶ cm/s
CC(C)C[C@H]1NC(=O)[C@@H](Cc2ccccc2)NC(=O)CNC(=O)[C@H](C)NC(=O)[C@H](Cc2ccc(O)cc2)NC(=O)[C@@H]2CCCN2C1=O	0.01 ×10⁻⁶ cm/s	< 0.14 ×10⁻⁶ cm/s
CC(C)C[C@@H]1NC(=O)[C@H](Cc2ccc(O)cc2)NC(=O)[C@H]2CCCN2C(=O)[C@H](CC(C)C)NC(=O)[C@H](CC(C)C)N(C)C(=O)[C@@H](CC(C)C)N(C)C1=O	0.96 ×10⁻⁶ cm/s	10.8 ×10⁻⁶ cm/s
CC(C)C[C@@H]1C(=O)N(C)[C@H](CC(C)C)C(=O)N[C@H](CC(C)C)C(=O)N(C)[C@@H](CC(C)C)C(=O)N2CCC[C@H]2C(=O)N[C@@H](Cc2ccc(O)cc2)C(=O)N1C	1.88 ×10⁻⁶ cm/s	16.4 ×10⁻⁶ cm/s
